Residues, ends and D or L forms follow the SMILES beside them. *: point of attachment. Cbz = O=C(OCc1ccccc1)*
Row | melting point [°C] | SMILES
1 | 52 to 56 | O=C(O)CCCC/C=C(/c1ccc(-c2nc(C(=O)NCCCCC3CCCCC3)co2)cc1)c1cccnc1
2 | 108 to 110 | CCOC(=O)c1cccn2cc(C(Cl)Cl)nc12
3 | 137 to 138 | O=C(O)Cc1cc(Cl)c(O)cc1F
4 | 71 to 74 | CCCCOP(=O)(CCCCC1(C(=O)NCC(F)(F)F)c2ccccc2-c2ccccc21)OCCCC
5 | 202 to 204 | CC1(C)OCC(CCn2cnc3c(N)nc(N)nc32)CO1
6 | 170 to 171 | NC1CCc2cc(Cl)ccc2NC1=O (stereo not given)
7 | 103 | Cc1ccc(CN2CCN(c3cc(-c4ccccc4)ccn3)CC2)cc1
8 | 282 to 283 | CS(=O)(=O)c1cnc(NC(=O)c2ccccc2O)s1
9 | 140 to 141 | CC(COC(=O)C(=O)Nc1nc(-c2ccccc2)cs1)c1ccccc1 (stereo not given)
10 | 204 to 207 | CSc1ccc(-n2c(-c3ccc(F)cc3)nc(SC)c(C#N)c2=O)cc1
11 | 143 to 144 | Cc1c(O)ccc(Cl)c1N
12 | 290 to 295 | N#Cc1c(-c2ccc(Cl)c(Cl)c2)cc(C2CC2)[nH]c1=O
13 | 169 to 170 | O=C1CCN(Cc2cc([N+](=O)[O-])ccc2O)CC1C(c1ccc(F)cc1)c1ccc(F)cc1 (stereo not given)
14 | 98 to 102 | Cc1c(-c2ccc(O)cc2)n(Cc2ccc(OCCN3CCCCCCC3)cc2)c2ccc(O)cc12
15 | 121 to 123 | CC(C)(COc1ccc(O)c(C(N)=O)c1)NCC(O)c1ccccc1 (stereo not given)
16 | 145 to 152 | CC12CCC(=O)C=C1CCC1C2C2CC3(C(O)O2)C(C(=O)COC(=O)CC(CC(=O)O)c2ccc(O)cc2)CCC13 (stereo not given)
17 | 190 | O=C1C=C(c2ccc(F)cc2)CN1
18 | 219 to 248 | CN1CCN(c2ncccc2OC2CCN(c3ccc(C4CCOCC4)cc3)C2=O)CC1 (stereo not given)
19 | 295 to 300 | CC(=O)Nc1ccc2oc(=O)[nH]c2c1
20 | 77.5 to 80 | COc1csc2ccc(C(=O)CC(=O)C3CC3)c(OC)c12
21 | 226 | N#CC1=C(C2=CCNCC2)Nc2n[nH]cc2C1c1cccc(C#N)c1Br (stereo not given)
22 | 175 to 176 | CN(C1CCN(Cc2cccs2)CC1)S(=O)(=O)c1ccc(Nc2nccc(Nc3ccc(F)cc3)n2)cc1
23 | 97 | Cc1nc(C(=O)c2ccc(Cl)cc2)sc1C
24 | 130 to 132 | O=C1c2ccccc2C(=O)N1n1cccc1Cl
25 | 46 to 48 | CCCCCCCCCCCCCCCCCCN(C(=O)OC(C)(C)C)c1ccc(CCC(=O)O)cc1
26 | 188 to 189 | COc1nc2cc(Cl)c(Cl)c(-c3nnnn3CCCO)c2nc1OC

Row | melting point [°C] | SMILES
27 | 200 to 203 | CC(C)(C)C(=O)CN1C(=O)C(NC(=O)Nc2cccc3ccccc23)CN(C2CCCCC2)c2ccccc21 (stereo not given)
28 | 234 to 236 | CC(=O)NNc1ccc(NC(=S)Nc2ccc(NNC(C)=O)cc2)cc1
29 | 171 | COc1cc(NC(=O)OC(C)(C)C)c([N+](=O)[O-])cc1I
30 | 64 to 67 | NCc1cc(-c2ccnc(Nc3cccc(OC(F)(F)C(F)F)c3)n2)ccn1
31 | 101 to 104 | CCC(C)C=C(C(=O)c1ccc(Cl)cc1Cl)n1cncn1 (stereo not given)
32 | 110 to 112 | COc1ccc(C(=O)CC(SC(C)=O)C(=O)O)cc1OC (stereo not given)
33 | 190 | O=C(NC[C@H]1O[C@H]1c1ccccc1)c1ccc(NC(=O)C(F)(F)F)cc1 (racemic)
34 | 138 to 140 | COC1=CCC(N)(O)C=C1 (stereo not given)
35 | 60 to 62 | CC#CCOc1cccc(S(=O)(=O)N(C)C(C(=O)NO)c2ccc(OCCCNC(=O)OCC)cc2)c1 (stereo not given)
36 | 64 | Cn1c(C(F)(F)F)n[nH]c1=O
37 | 259 to 261 | O=C(O)[C@H](Cc1ccccc1)Nc1c(NCc2cccnc2)c(=O)c1=O
38 | 190 to 192 | CC(C)c1ccc(-c2c(Cl)c(CCl)nc3sc4c(c23)CCN(Cc2ccccc2)C4)cc1
39 | 142 to 143 | O=S(=O)(c1ccc(Oc2ccccc2)cc1)c1ccc(Oc2ccccc2)cc1
40 | 83.5 to 86 | C=CCNc1cc(OCC=C)c(C(=O)O)cc1Cl
41 | 93.5 to 94.5 | O=C(NCc1ccc(OCCN2CCCC2)cc1)c1ccc2c(c1)OCO2
42 | 154 to 156 | COc1ccc(C(=O)Nc2ccccc2C(c2ccc(O)cc2)c2ccc(O)cc2)cc1
43 | 283 to 285 | Cn1cc(O)c(=O)c2ccc(F)cc21
44 | 79 to 80 | Cc1cc(C)c2c(c1C)O[C@@H](C)[C@H]2c1ccc(C(C)C)cc1 (relative stereo)
45 | 174 to 176 | CN1CC(c2ccc(Cl)cc2)=NN(c2ccc(Cl)cc2)C1=O
46 | 239 to 241 | CS(=O)(=O)c1ccc(C=Cc2cc(=O)cc(-c3ccccc3)o2)cc1
47 | 98 to 101 | CCCCCNC(=O)c1ccc(Cl)nn1
48 | 214 to 215 | COc1ccc(C(=O)c2c(N)sc3c2CCC3)c2ccccc12
49 | 101 to 102 | O=S(=O)(c1cc(Cl)ccc1O)N1CCCC1
50 | 107 to 108 | COC(=O)CCCC(=O)N(CCc1c[nH]c2ccccc12)Cc1ccccc1
51 | 85 to 86 | Cc1oc(-c2cccs2)nc1COc1ccc(CCCCn2ccnc2)cc1

Second part, the compound before the results:

Row | SMILES | melting point [°C]
52 | c1cc(Nc2ccc3[nH]ncc3c2)ccn1 | 189 to 190
53 | COC(=O)c1ccc(OCC2CC(=O)N(c3ccc(O)cc3)C2)cc1 (stereo not given) | 141 to 144
54 | CN(CCC(=O)O)c1ccccc1CNC(=O)C1Cc2ccccc2N1S(=O)(=O)c1ccc(-c2ccc(F)cc2Cl)cc1 (stereo not given) | 75 to 83
55 | N#Cc1c(C(F)(F)F)[nH]c2ccc(Br)cc12 | 188 to 192
56 | O=C(c1cccnc1)N1CCN=C1Nc1c(Cl)cccc1Cl | 173 to 174
57 | C=C1CCN(CC)c2c(CSc3nc4ccccc4[nH]3)cccc21 | 148 to 149
58 | CN1Cc2c(I)ncn2-c2ccc(F)c(Cl)c2C1=O | 218 to 219
59 | C=CC(Cc1ccccc1)(C(=O)O)N(Cc1ccccc1)C(=O)OCc1ccccc1 (stereo not given) | 68 to 70
60 | CN(Cc1ccccc1)c1nc2c(cc1C#N)C(=O)CC(C)(C)C2 | 97 to 99
61 | C[C@H](NC(=O)OCc1ccccc1)C(=O)N1CCC[C@H]1C(=O)O (Cbz-Ala-Pro-OH) | 124 to 125
62 | O=C(CC(=O)C(F)(F)F)Nc1cc(-c2ccsc2)n[nH]1 | 251 to 253
63 | O=C1C=C(NC2CCN(Cc3ccccc3)CC2)CCC1 | 171 to 172
64 | Cc1cc(S(=O)(=O)c2ccc(O)cc2)ccc1C1CCN(C)C1 (stereo not given) | 186 to 188
65 | NC(=O)CN1CCN(c2ccc3c(c2)N2CCN=C2C(c2ccccc2)=[N+]3[O-])CC1 | 225 to 227
66 | CCOC(=O)C(C)Oc1ccc(-c2nc(-c3ccc(OC(C)C(=O)OCC)cc3O)nc(-c3ccc(OC(C)C(=O)OCC)cc3O)n2)c(O)c1 (stereo not given) | 115 to 120
67 | CCOC(=O)c1cn(-c2cc(NC=O)c(F)cc2F)c2c(F)c(F)c(F)c(NCc3ccccc3)c2c1=O | 151 to 156
68 | COc1ccc(N2CCN(c3c(C)c(C)c4c(c3C)C(=O)C(C)(C)O4)CC2)cc1OC | 153 to 154
69 | CCCCCCCCCCCCOC(=O)Cc1nc(-c2ccc(Cl)cc2)oc1-c1ccco1 | 69.5 to 71
70 | CC(=C1SC(=O)NC1=O)c1ccc(S(=O)(=O)CCc2ccccc2)cc1 | 201 to 202
71 | C=CCn1c(C)c(C)c2cnnc(SCc3ccc(Cl)cc3)c21 | 107 to 108
72 | COCCN(C)Cc1ccc(NC(=O)C2=Cc3cc(-c4ccc(C)cc4)ccc3OCC2)cc1 | 121 to 122
73 | COc1cccc(C#N)c1C | 47 to 48
74 | O=C(OC1C2CN(Cc3ccccc3)CC1CN(C(=O)c1ccc(Cl)cc1)C2)c1ccccc1 (stereo not given) | 165
75 | Fc1ccc(CNc2nc(-n3cnc4ccccc43)nc(-n3cnc4ccccc43)n2)cc1 | 296 to 298
76 | Cc1cccc(-c2nc(N)sc2-c2ccnc(-c3ccc(C(=O)NC4CCOCC4)cc3)c2)n1 | 230 to 232

Row | SMILES | melting point [°C]
77 | O=c1[nH]c2ccc(Cl)cc2n1C1CCNCC1 | > 300
78 | Cc1c(-c2cnc(C(N)=O)c3[nH]c4cc(NC5CCOC5)ccc4c23)cccc1N1Cc2ccc(Cl)cc2C1=O (stereo not given) | 115
79 | O=C1CCN(C(=O)c2ccc(Cl)cc2Cl)c2c(Cl)cccc21 | 157 to 159
80 | N#CC(CCOc1ccccc1)(Cn1cncn1)c1ccccc1 (stereo not given) | 64 to 66
81 | COc1ccc2cc(-n3c(C)nnc3C)cc(C)c2n1 | 211 to 213
82 | O=C1N=NC(=O)c2ccccc21 | 257 to 259
83 | CC(C)N(C(=O)CO)c1ccccc1 | 39
84 | N=C(N)Nc1nc(-c2cccc(N)c2)cs1 | 180 to 182
85 | OC1CCc2oc3c(Cl)cc(Br)cc3c2C1 (single isomer, unassigned; (-)) | 236 to 240
86 | COc1cc(CC(N)=O)cc(OC(F)F)c1OC | 104 to 105
87 | CCOC(=O)C1=C(C(=O)OCC)C(c2cccc3ccccc23)C(C(=O)OCC)=C(C)N1 (stereo not given) | 112
88 | CCCn1c(=O)n2c(-c3cccs3)nnc2c2c1ncn2C | 206 to 207
89 | CCOC(=O)N1CCN(c2ccc(C3=NNC(=O)CC3C)cc2N)CC1 (stereo not given) | 193 to 195
90 | OC(CCc1ccccc1)c1cnc2sc3c(n12)CCCCCC3 (stereo not given) | 123 to 124
91 | Nc1ncnc2c1nnn2C1C=CCC1 (stereo not given) | 207 to 208
92 | N#Cc1cccnc1N1CCN(CC(=O)Nc2cccc(Cl)c2)CC1 | 108 to 109
93 | COC(=NC(=O)Nc1ccc(OC(F)(F)F)cc1)c1ccccc1Cl | 148 to 149
94 | CS(=O)(=O)Nc1ccc(C(=O)NC(=O)N2CCC(Cc3ccc(F)cc3)CC2)cc1 | 221 to 222
95 | Cn1cc(C(=O)NCc2ccc(Cl)cc2)c(=O)c2cc(CN3CCOCC3)cc(C#CCC(CO)CO)c21 | 190 to 193
96 | O=C(NCc1ccc(F)cc1)c1ccnc(N2CCN(Cc3ccncc3)C2=O)c1 | 161 to 163
97 | CC(=O)OCCn1cncc1[N+](=O)[O-] | 61 to 62
98 | COc1cc(N)c(CCN2CCN(c3nsc4ccccc34)CC2)cc1OC | 55
99 | CCCc1c(-c2cccnn2)ssc1=S | 77
100 | CC/C(=C(\c1ccc(/C=C/C(=O)O)cc1)c1ccc(OC(=O)OC)cc1)c1ccccc1 | 140 to 142

From a melting point compilation (Tetko et al.; mined from patent text by program, amines drawn as free bases though some values may be those of a salt)
